# Measured values from publication PMC4764977, “AZD8797 is an allosteric non-competitive modulator of the human CX3CR1 receptor” (Biochemical Journal, 2016).
# Like-named read-outs stand apart in the source and are kept apart here.
# Key:
# CX3CR1 [1] = target: T1, CX3CR1 (Homo sapiens, UniProt P49238); set-up: method as in PMID 23516963; details: HEK293 cells co-transfected with Gqi5-protein; read-out: Ki, 125I-CX3CL1 competition assay; cited from earlier work
# T1 sequence (P49238 1-355): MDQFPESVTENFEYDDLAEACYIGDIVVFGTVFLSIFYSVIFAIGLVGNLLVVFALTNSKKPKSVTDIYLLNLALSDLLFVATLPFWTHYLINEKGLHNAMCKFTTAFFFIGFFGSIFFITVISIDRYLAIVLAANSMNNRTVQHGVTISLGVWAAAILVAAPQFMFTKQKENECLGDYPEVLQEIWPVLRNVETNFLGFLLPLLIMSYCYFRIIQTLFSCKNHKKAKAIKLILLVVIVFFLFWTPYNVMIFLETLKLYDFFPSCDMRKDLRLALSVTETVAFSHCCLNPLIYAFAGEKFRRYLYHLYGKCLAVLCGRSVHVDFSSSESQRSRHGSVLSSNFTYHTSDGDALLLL
# CX3CR1 [2] = target: T1, CX3CR1; test: [3H]AZD8797 competition binding, CHO-hCX3CR1 membranes; set-up: host or cells: CHO-K1; details: 2 nM [3H]AZD8797, n=7
# Procedure: Adherent CHO-K1 cells stably expressing human CX3CR1 (CHO-hCX3CR1) were grown in F12 medium with GlutaMAX, 10% FBS (Sigma–Aldrich) and 400 μg·ml^−1 geneticin and harvested at 80% confluency. Cells were washed in PBS and lysed with an Ultra-Turrax Homogenizer in 50 mM Tris/HCl (pH 7.4) and 1 mM EDTA with Complete™ protease inhibitor (Roche). […] Protein concentration was determined using the BCA method (Thermo Fisher Scientific). […] The filter plate was washed in ice-cold 25 mM HEPES (pH 7.4), 5 mM MgCl2, 1 mM CaCl2 and 500 mM NaCl and dried at 50°C for 1 h. Scintillation cocktail, Optiphase Supermix (PerkinElmer) was added to each well and the radioactivity was measured using a MicroBeta Trilux reader (PerkinElmer). All analysis and calculations were performed using GraphPad Prism 6.01. Functional and competition binding data were analysed using non-linear regression and fitted to a sigmoidal dose-response with variable slope according to the following equation: […] where Y is the amount of radioligand bound (cpm) or functional effect, Top denotes maximal asymptotic binding, and Bottom denotes the minimal asymptotic binding. XC50 is either the EC50 or the IC50 value, and X is the logarithm of the test compound concentration. Ki values were calculated from IC50 values using the Cheng–Prusoff equation: […]
# CX3CR1 [3] = target: T1, CX3CR1; test: Dynamic mass redistribution (DMR), CHO-hCX3CR1 cells; type: cell-based; set-up: host or cells: CHO-K1
# Procedure: (§1) CHO-hCX3CR1 cells were seeded at 12000 cells per well in DMEM with 10% FBS and RPMI-8226 cells at 8000 cells per well in RPMI 1640 medium with GlutaMAX and 20% FBS on 384-well fibronectin-coated EPIC™ biosensor plates (Corning) and cultured at 37°C for 24 h. At 18–24 h prior to compound treatment, the medium was replaced with serum-free medium with or without 100 ng·ml^−1 PTX. Cells were then washed with assay buffer (HBSS, 20 mM HEPES (pH 7.4) and 0.01% BSA) and allowed to equilibrate at 26°C for 1 h inside the EPIC™ plate reader. Following equilibration, a baseline scan was performed before adding AZD8797 or CX3CL1 using a CyBi-Well vario (CyBio). Dynamic mass redistribution (DMR) was then measured during a 60 min scan. As in the [^35S]GTPγS binding assay, the final DMSO concentration was held constant at 1%.
# CX3CR1 [4] = target: T1, CX3CR1; test: Equilibrium saturation binding, CHO-hCX3CR1 membranes; set-up: host or cells: CHO-K1
# Procedure: Cells were washed in PBS and lysed with an Ultra-Turrax Homogenizer in 50 mM Tris/HCl (pH 7.4) and 1 mM EDTA with Complete™ protease inhibitor (Roche). […] Protein concentration was determined using the BCA method (Thermo Fisher Scientific). […] The filter plate was washed in ice-cold 25 mM HEPES (pH 7.4), 5 mM MgCl2, 1 mM CaCl2 and 500 mM NaCl and dried at 50°C for 1 h. Scintillation cocktail, Optiphase Supermix (PerkinElmer) was added to each well and the radioactivity was measured using a MicroBeta Trilux reader (PerkinElmer). […] The DMSO concentration was held constant at 1%. where Kd is the radioligand dissociation constant. Saturation binding isotherms were analysed by non-linear regression and globally fitted to a hyperbolic one-site binding model taking into account both NSB and total binding to calculate the total receptor number (Bmax) and radioligand dissociation constant (Kd): […] NSB=NS·X+Background, where NS is the concentration-dependent NSB. To visualize the manner of binding of CX3CL1 and AZD8797, a diagnostic affinity ratio plot designed to compare strictly competitive behaviour with allosteric interactions was used. […] For single site competitive interactions, the resulting linear plot has the slope of 1.0. For allosteric but competitive interactions, the slope will start at 1.0 but progressively deviate from unity, eventually reaching a limit governed by the allosteric ternary complex model co-operativity factor α [21, 22].
# CX3CR1 (RPMI-8226 cells) = target: T2, CX3CR1 (RPMI-8226 cells) (Homo sapiens, UniProt P49238); test: Dynamic mass redistribution (DMR), RPMI-8226 cells; type: cell-based
# T2 construct: RPMI-8226 cells, a human B-lymphocyte cell line endogenously expressing human CX3CR1; CCL-155; host or cells: RPMI-8226
# T2 sequence (P49238 1-355): T1 sequence (P49238 1-355)
# Procedure: as §1
# CX3CR1 [5] = target: T1, CX3CR1; test: PathHunter β-arrestin recruitment assay, CHO-K1 CX3CR1 β-arrestin cell line; type: cell-based; set-up: host or cells: CHO-K1
# Procedure: β-Arrestin recruitment was measured using the PathHunter™ enzyme fragment complementation assay from DiscoveRx and carried out according to the manufacturer's instructions. In short, 3500 cells per well in Opti-MEM were incubated together with different concentrations of AZD8797 and CX3CL1 in a 384-well plate. After 90 min of incubation at 37°C, detection reagent was added and incubation continued for 1 h at room temperature, before reading the plate with a Victor^2 luminescence plate reader (PerkinElmer). As in the [^35S]GTPγS binding assay, the final DMSO concentration was held constant at 1%.
# [6] = test system: untransfected CHO-K1 cells; test: Dynamic mass redistribution (DMR), untransfected CHO-K1 cells; type: cell-based, Chinese hamster
# [7] = increasing concentrations of unlabelled compound
compound,measurement,setting,value
CC(C)C[C@H](CO)Nc1nc(S[C@@H](C)c2ccccc2)nc2nc(N)sc12 [AZD8797],Ki,CX3CR1 [1],4 nM
same,Ki,CX3CR1 [2],7.3 nM
same,Concentration needed for agonist response vs concentration needed to block CX3CL1 binding and functional response in membranes,CX3CR1 [3]; CHO-hCX3CR1 cells vs purified membranes,more than 10 fold
same,Effect of PTX treatment on DMR signal,"CX3CR1 [3]; CHO-hCX3CR1 cells, 100 ng·ml^−1 PTX",reduced
same,"Maximum effect, DMR","CX3CR1 [3]; CHO-hCX3CR1 cells, compound alone, no plateau, n=3",79 % of CX3CL1
same,EC50,"CX3CR1 [3]; CHO-hCX3CR1 cells, compound alone, no plateau, n=3, read-out: Potency, DMR agonism",> 5000 nM
same,Antagonist response in DMR,"CX3CR1 [3]; challenging EC80 of CX3CL1 with different concentrations, cell line not specified, results not shown",could not measure any antagonist response
same,Effect on Bmax of 125I-CX3CL1 saturation binding,CX3CR1 [4]; [7],decreased
same,Effect on Kd of 125I-CX3CL1 saturation binding,CX3CR1 [4]; [7],without any effect
same,Kd,"CX3CR1 [4]; one-site model, n=4",12 nM
same,Effect of PTX treatment on DMR signal,CX3CR1 (RPMI-8226 cells); 100 ng·ml^−1 PTX,reduced
same,EC50,CX3CR1 (RPMI-8226 cells); n=3,410 nM
same,Increase of CX3CL1 efficacy in β-arrestin recruitment,"CX3CR1 [5]; 16 and 140 nM AZD8797, efficacy enhanced, not potency",~2 fold
same,"Effect on β-arrestin recruitment, compound alone",CX3CR1 [5]; AZD8797 alone,no effect
same,CX3CL1-induced β-arrestin recruitment at higher concentrations,CX3CR1 [5]; higher concentrations of AZD8797,almost abolished
same,DMR response in untransfected cells,[6],38 % of AZD8797 effect in transfected cells
same,DMR response in untransfected cells (words),[6],only weakly responded
